Source: patent US20240409585A1, “MACROCYCLIC IMMUNOMODULATORS” (priority 2021, published 2024)
Bridge positions count the residues as written; N and C are the ends. Square brackets hold non-standard residues; d marks the D form. Peptide text beside a SMILES is read from it. * marks the point of attachment. ξ: configuration not given here. Phe(4-COOH) = N[C@@H](Cc1ccc(C(=O)O)cc1)C(=O)O; Bip = N[C@@H](Cc1ccc(-c2ccccc2)cc1)C(=O)O; Phe(3-Me) = Cc1cccc(C[C@H](N)C(=O)O)c1; Bta = N[C@@H](Cc1csc2ccccc12)C(=O)O; Val(3-OH) = CC(C)(O)[C@H](N)C(=O)O; 4Pal = N[C@@H](Cc1ccncc1)C(=O)O; Cha = N[C@@H](CC1CCCCC1)C(=O)O; dChg = N[C@@H](C(=O)O)C1CCCCC1; Thr(3ξ) = CC(O)[C@H](N)C(=O)O; Carboxymethyl = O=C(O)C*; NMeA = CN[C@@H](C)C(=O)O; Dab = NCC[C@H](N)C(=O)O

Molecular target: T1, PE-labeled human PD-L1-Ig binding to Jurkat cell line over-expressing human PD-1 (Jurkat-PD-1) (Homo sapiens, UniProt Q15116)
T1 construct: expressed in transfected cells; host or cells: Jurkat
Test: Jurkat-PD-1 Cell Binding High-Content Screening Assay (CBA): Method 1
Conditions: Jurkat-hPD-1 cells, PE-labeled PD-L1-Ig 20 nM final; read-out: Jurkat HPDL1 PD1 IC50 (uM) (Method 1)

T1 sequence (Q15116 25-288): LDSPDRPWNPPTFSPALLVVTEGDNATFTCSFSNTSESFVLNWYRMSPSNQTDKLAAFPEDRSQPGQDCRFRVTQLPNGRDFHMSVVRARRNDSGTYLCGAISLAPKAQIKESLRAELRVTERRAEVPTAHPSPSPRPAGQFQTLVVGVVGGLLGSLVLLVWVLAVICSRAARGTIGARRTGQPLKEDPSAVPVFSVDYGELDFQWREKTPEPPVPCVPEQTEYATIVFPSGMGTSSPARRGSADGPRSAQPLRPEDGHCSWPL

Compound	IC50
CC(C)C[C@@H]1NC(=O)[C@H](Cc2c[nH]c3ccccc23)NC(=O)[C@H](CC(=O)O)NC(=O)[C@H](Cc2ccc(O)cc2)NC(=O)[C@H](Cc2ccccc2)NC(=O)CSC[C@@H](C(=O)N[C@@H](C)C(N)=O)NC(=O)[C@H](CO)NC(=O)[C@H](CCCCN)NC(=O)[C@H](CC(C)C)NC(=O)[C@H](CC(N)=O)NC(=O)[C@@H](C)NC(=O)[C@H](C)N(C)C(=O)[C@H](C(C)C)NC(=O)[C@H](Cc2ccc(-c3ccccc3)cc2)NC1=O [Compound 1529] ({CH2CO}-FYDWL[Bip]V[NMeA][dA]NLKSCA-NH2; thioether N-14)	0.05 µM
CC(C)C[C@@H]1NC(=O)[C@H](CCN)NC(=O)[C@@H](CC(C)C)NC(=O)[C@H](C)N(C)C(=O)[C@H](CCC(=O)O)NC(=O)[C@H](Cc2ccc(-c3ccccc3)cc2)NC(=O)[C@H](C(C)C)NC(=O)[C@H](Cc2c[nH]c3ccccc23)NC(=O)[C@H](CC(=O)O)NC(=O)[C@H](Cc2ccc(C(=O)O)cc2)NC(=O)[C@H](CC(N)=O)NC(=O)CSC[C@@H](C(=O)N[C@@H](C)C(N)=O)NC(=O)[C@H]([C@@H](C)O)NC(=O)[C@H](C(C)C)NC1=O [Compound 1389] ({CH2CO}-N[Phe(4-COOH)]DWV[Bip]E[NMeA][dL][Dab]LVTCA-NH2; thioether N-14)	0.03 µM
Cc1cccc(C[C@@H]2NC(=O)[C@H](CC(=O)O)NC(=O)[C@H](Cc3ccc(OCC(=O)O)cc3)NC(=O)[C@H](Cc3ccncc3)NC(=O)CSC[C@@H](C(=O)N[C@@H](CCN)C(N)=O)NC(=O)[C@H](CCC(=O)O)NC(=O)[C@H](C(C)(C)O)NC(=O)[C@H](CC3CCCCC3)NC(=O)[C@H](CCN)NC(=O)[C@@H](CC(C)C)NC(=O)[C@H](C)N(C)C(=O)[C@H](Cc3ccc(OCC(=O)O)cc3)NC(=O)[C@H](Cc3ccc(-c4ccccc4)cc3)NC(=O)[C@H](Cc3ccc(C(=O)O)cc3)NC2=O)c1 [Compound 2189] ({CH2CO}-[4Pal]Y(Carboxymethyl)D[Phe(3-Me)][Phe(4-COOH)][Bip]Y(Carboxymethyl)[NMeA][dL][Dab][Cha][Val(3-OH)]EC[Dab]-NH2; thioether N-14)	0.03 µM
CC(C)C[C@@H]1NC(=O)[C@H](CCCNC(=N)N)NC(=O)[C@@H](C2CCCCC2)NC(=O)[C@H](C)N(C)C(=O)[C@H](CCCNC(=N)N)NC(=O)[C@H](Cc2ccc(-c3ccccc3)cc2)NC(=O)[C@H](C(C)C)NC(=O)[C@H](Cc2c[nH]c3ccccc23)NC(=O)[C@H](CC(=O)O)NC(=O)[C@H](Cc2ccc(O)cc2)NC(=O)[C@H](Cc2ccccc2)NC(=O)CSC[C@@H](C(=O)N[C@@H](C)C(N)=O)NC(=O)[C@H]([C@@H](C)O)NC(=O)[C@H](C(C)C)NC1=O [Compound 1061] ({CH2CO}-FYDWV[Bip]R[NMeA][dChg]RLVTCA-NH2; thioether N-14)	0.1 µM

More lines, in order of falling IC50, values ahead:

IC50	Compound
0.12 µM	CC(C)C[C@@H]1NC(=O)[C@H](CCCNC(=N)N)NC(=O)[C@H](Cc2csc3ccccc23)NC(=O)[C@H](C)N(C)C(=O)[C@H](CCCNC(=N)N)NC(=O)[C@H](Cc2ccc(-c3ccccc3)cc2)NC(=O)[C@H](C(C)C)NC(=O)[C@H](Cc2c[nH]c3ccccc23)NC(=O)[C@H](CC(=O)O)NC(=O)[C@H](Cc2ccc(O)cc2)NC(=O)[C@H](Cc2cnc[nH]2)NC(=O)CSC[C@@H](C(=O)NCC(N)=O)NC(=O)[C@H](CO)NC(=O)[C@H](C(C)C)NC1=O [Compound 1025] ({CH2CO}-HYDWV[Bip]R[NMeA][Bta]RLVSCG-NH2; thioether N-14)
0.01 µM	Cc1cccc(C[C@@H]2NC(=O)[C@H](CC(=O)O)NC(=O)[C@H](Cc3ccc(OCC(=O)O)cc3)NC(=O)[C@H](C(C)O)NC(=O)CSC[C@@H](C(=O)N[C@@H](CCN)C(N)=O)NC(=O)[C@H](C(C)O)NC(=O)[C@H](C(C)C)NC(=O)[C@H](CC3CCCCC3)NC(=O)[C@H](CCN)NC(=O)[C@@H](CC(C)C)NC(=O)[C@H](C)N(C)C(=O)[C@H](Cc3ccc(OCC(=O)O)cc3)NC(=O)[C@H](Cc3ccc(-c4ccccc4)cc3)NC(=O)[C@H](Cc3ccc(C(=O)O)cc3)NC2=O)c1 (stereo partly drawn) [Compound 2115] ({CH2CO}-[Thr(3ξ)]Y(Carboxymethyl)D[Phe(3-Me)][Phe(4-COOH)][Bip]Y(Carboxymethyl)[NMeA][dL][Dab][Cha]V[Thr(3ξ)]C[Dab]-NH2; thioether N-14)
